Assays:
[1] = tested on: Isolated testicular cells (from azoospermic adult patients); assay: Effect of TNFα on development of spermatogenic markers in vitro in methylcellulose culture system (MCS); format: cell-based, human; parameters: key to VASA (pre-meiotic marker) staining / PLZF (pre-meiotic marker) staining / SALL4 (pre-meiotic marker) staining / CREM (meiotic marker) staining / BOULE (meiotic marker) staining / ACROSIN (post-meiotic marker) staining: “+” indicates positive staining for the indicated marker; “−” indicates negative staining for the indicated marker
From the text: After an overnight in sperm wash media containing 30% human serum albumin at room temperature (RT), TESE specimen were re-searched for sperm and then collected into the same media and transferred to the present inventor' lab, while TEFNA specimens were transferred to Modified Human Tubal Fluid (HTF) media containing 15% serum protein substitutes and transferred to the present inventor' lab after two days at RT. For cell isolation, biopsies were cut into small pieces of ˜2 mm, and subjected to collagenase type V (2 mg/ml) (Sigma, St. Louis, Mo., USA), DNAse (8 μg/ml) (Sigma) and hyelorunidase (2 mg/ml) (Sigma) in a total volume of 4 ml for 20 minutes in a 32° C. water bath shaker. Cells were precipitated by centrifugation (300×g, 10 minutes) and suspended with 4 ml of Tryple Select (Gibco, Denmark) for 10 minutes in a shaking water bath at 32° C. Cell suspension was centrifuged (300×g, 10 minutes) and the precipitated cells were suspended in 200 μl Roswell Park Memorial Institute (RPMI) (Biological Industries, Beit Haemek, Israel) and counted. Cells were cultured (2×10^4 cells/well/500 μl) in Minimum Essential Medi (MEM) (Biological Industries) which contained sodium bicarbonate (Gibco, UK), 7.5%, L-glutamine (Biological industries) 200 mM, non-essential amino acids (Gibco, UK) 1%, penicillin/streptomycin (Biological Industries) and gentamicin (Biological Industries) (10 mg/ml), and incubated for 2 nights in 24 well plates at 37° C., 5% CO2. The nonadherent cells were collected and cultured (2×10^4 cells/well/500 μl) in methylcellulose (R&D, Minneapolis, USA) (42%) [as a three-dimension (3D) culture system], which contained 33% StemPro-34 medium (Gibco, USA) enriched with: StemPro supplement (2.6%) (Gibco), insulin (25 μg/ml) (Gibco), transferrin (100 μg/ml) (Gibco), putrescin (60 μg/ml) (Gibco), sodium selenite (30 nM) (Gibco), D-glucose (6 mg/ml) (Sigma), pyruvic acid (30 μg/ml) (Sigma), BSA (Millpore, Illkirch, France) (5 mg/ml), L-glutamine (2 mM) (Biological Industries), 2-mercaptoethanol (0.5 μM) (Gibco), MEM vitamin solution (10 μl/ml) (Gibco, UK), MEM non-essential amino acid solution (10 μl/ml) (Gibco, UK), ascorbic acid (100 μM) (Sigma, China), d-biotin (10 μg/ml) (Sigma), 1% KSR (Gibco, UK), 0.5% Pen/Strep (Biological Industries), human rEGF (20 ng/ml) (Biolegend, CA, USA), human rGDNF (10 ng/ml) (Biolegend), human rLIF (10 ng/ml) (Biolegend) and human r-bFGF (10 ng/ml) (Biolegend). Cells were cultured for 1-16 weeks. Every 1-2 weeks (according to the growth and morphology of the cells), we added 50 μl/well of fresh concentrated (×10) enriched StemPro-34 medium to the cell cultures.
Isolated cells were fixed in cold methanol for 20 minutes. The immunostaining process was similar to that mentioned above for testicular tissue immunostaining after the stage of antigen retrieval. Following the removal of the blocking buffer, the first antibodies were added: Polyclonal rabbit anti-mouse SALL4 (Abcam, Cambridge, UK; 1:400), Polyclonal rabbit anti-human VASA (Santa Cruz 1:100), Polyclonal rabbit anti-human CD9 (Santa Cruz; 1:10), Polyclonal goat anti-human OCT4 (Santa Cruz; 1:50), Polyclonal rabbit anti-human α-6-INTEGRIN (Santa Cruz; 1:100), Polyclonal rabbit anti-human GFR-α □(Santa Cruz; 1:50), monoclonal mouse anti-human PLZF (Santa Cruz; 1:100), Polyclonal rabbit anti-human c-KIT (Santa Cruz; 1:50), Polyclonal rabbit anti-human BOULE (Santa Cruz; 1:25), Polyclonal rabbit anti-mouse CREM-1 (Santa Cruz; 1:30), Polyclonal goat anti-human LDH (Santa Cruz; 1:50), Polyclonal goat anti-mouse PROTAMINE (Santa Cruz; 1:20), Polyclonal rabbit anti-human ACROSIN (Santa Cruz; 1:10), monoclonal mouse anti-human Ki67 (Dianova GmbH, Germany; 1:200), monoclonal rabbit anti-human Ki67 (Cell marque; 1:200). After overnight incubation at 4° C., the slides were washed and treated as mentioned above for testicular tissue immunostaining. […]

[2] = tested on: cells isolated from seminiferous tubules of ICR immature (7-day-old) mice; assay: Effect of hormones and retinoic acid on development of mouse spermatogenesis in vitro in methylcellulose culture system (qPCR of markers); format: cell-based; conditions: 10^−8 M, 10^−7 M or 10^−6 M added after two weeks of culture, examined after total four weeks, normal immature mice
Procedure: Cells were enzymatically isolated from seminiferous tubules of ICR mice (which were developed by the Institute of Cancer Research, also called CD-1) immature mice (7-day-old mice).
Briefly, cells were cultured (2×10^5 cells/well/500 μl) in MEM medium which contained sodium bicarbonate 7.5%, L-glutamine 200 mM, non-essential amino acids 1%, penicillin/streptomycin and gentamicin 10 mg/ml, and were incubated over 2 nights in 24 wells plate at 37° C., 5% CO2. The nonadherent cells were collected and cultured ([…] cells/well/500 μl) in methylcellulose (42%; R&D, Minneapolis, USA) [as a three-dimension (3D) culture system], which contained the StemPro-34 medium (Gibco, USA) enriched with: 10% KSR (knockout serum replacement, Gibco, USA) and the following growth factors: Glial cell-derived neurotrophic factor (GDNF; 10 ng/ml; Biolegend), Leukemia inhibitory factor (LIF; 10 ng/ml; Biolegend), epidermal growth factors (EGF; 20 ng/ml; Biolegend, CA, USA), bFGF (basic fibroblast growth factor) (10 ng/ml; Biolegend).
Cells were cultured for 4 weeks. Every 1-2 weeks (according to the growth and morphology of the cells) the present inventor added 50 μl/well of fresh concentrated (×10) enriched StemPro-34 medium to the cell cultures. […]

[3] = TNFα 20 pg/ml, after culture (14.5 Ws) in MCS, patient 1, immunofluorescence staining

TNFα
differentiation of the pre-meiotic cells to meiotic cells that express CREM ([1]; TNFα 20 pg/ml, patient #1, compared to CT (did not induce CREM)): induced the differentiation | growth of premeiotic cells VASA and PLZF, meiotic cells (Boule) and postmeiotic cells (acrosin positive cells) ([1]; TNFα 20 pg/ml, patient #1, versus control (CT)): maintained/induced growth | ACROSIN (post-meiotic marker) staining [1, 3]: + | BOULE (meiotic marker) staining [1, 3]: + | CREM (meiotic marker) staining [1, 3]: + | PLZF (pre-meiotic marker) staining [1, 3]: + | SALL4 (pre-meiotic marker) staining [1, 3]: − | VASA (pre-meiotic marker) staining [1, 3]: + | development of colonies in MCS ([1]; in the presence of TNFα): colonies were developed

C[C@]12CC[C@H]3[C@@H](CCC4=CC(=O)CC[C@@]43C)[C@@H]1CC[C@@H]2O [testosterone]
expression of the meiotic/post-meiotic marker ACROSIN [2]: increased
